Test results from patent US20150218212A1, “FLUORINATED EPOXYKETONE-BASED TETRAPEPTIDE COMPOUNDS AND USES THEREOF AS PROTEASOME INHIBITORS” (FLUORINOV PHARMA INC., priority 2012, published 2015).

Experiments:
Format in all cases: cell-based, human
[1] = system: T-47D; test: NCI screening panel, T-47D (Breast Cancer)
Experimental: (§1) Representative compounds of Formula I were screened using the National Cancer Institute (NCI) screening panel, which consists of a panel of human tumor cell lines, representing leukemia, melanoma, and cancers of the lung, colon, ovary, breast, prostate and renal system.
(§2) After 24 h, two plates of each cell line are fixed in situ with TCA, to represent a measurement of the cell population for each cell line at the time of drug addition (Tz). Experimental drugs are solubilised in dimethyl sulfoxide at 400-fold the desired final maximum test concentration and stored frozen prior to use. At the time of drug addition, an aliquot of frozen concentrate is thawed and diluted to twice the desired final maximum test concentration with complete medium containing 50 μg/mL gentamicin. Additional four, 10-fold or ½ log serial dilutions are made to provide a total of five drug concentrations plus control. Aliquots of 100 μl of these different drug dilutions are added to the appropriate microtiter wells already containing 100 μl of medium, resulting in the required final drug concentrations.
(§3) Following drug addition, the plates are incubated for an additional 48 h at 37° C., 5% CO2, 95% air, and 100% relative humidity. For adherent cells, the assay is terminated by the addition of cold TCA (trichloroacetic acid). Cells are fixed in situ by the gentle addition of 50 μl of cold 50% (w/v) TCA (final concentration, 10% TCA) and incubated for 60 minutes at 4° C. The supernatant is discarded, and the plates are washed five times with tap water and air dried. Sulforhodamine B (SRB) solution (100 μl) at 0.4% (w/v) in 1% acetic acid is added to each well, and plates are incubated for 10 minutes at room temperature. After staining, unbound dye is removed by washing five times with 1% acetic acid and the plates are air dried. Bound stain is subsequently solubilised with 10 mM trizma base, and the absorbance is read on an automated plate reader at a wavelength of 515 nm. For suspension cells, the methodology is the same except that the assay is terminated by fixing settled cells at the bottom of the wells by gently adding 50 μl of 80% TCA (final concentration, 16% TCA). Using the seven absorbance measurements [time zero, (Tz), control growth, (C), and test growth in the presence of drug at the five concentration levels (Ti)], the percentage growth is calculated at each of the drug concentrations levels. Percentage growth inhibition is calculated as: [(Ti−Tz)/(C−Tz)]×100 for concentrations for which Ti>/=Tz and [(Ti−Tz)/Tz]×100 for concentrations for which Ti<Tz.
(§4) Three dose response parameters are calculated for each experimental agent. Growth inhibition of 50% (GI50) is calculated from [(Ti−Tz)/(C−Tz)]×100=50, which is the drug concentration resulting in a 50% reduction in the net protein increase (as measured by SRB staining) in control cells during the drug incubation. The drug concentration resulting in total growth inhibition (TGI) is calculated from Ti=Tz. The LC50 (concentration of drug resulting in a 50% reduction in the measured protein at the end of the drug treatment as compared to that at the beginning) indicating a net loss of cells following treatment is calculated from [(Ti−Tz)/Tz]×100=−50. Values are calculated for each of these three parameters if the level of activity is reached. However, if the effect is not reached or is exceeded, the value for that parameter is expressed as greater or less than the maximum or minimum concentration tested.

[2] = system: CAKI-1; test: NCI screening panel, CAKI-1 (Renal Cancer)
Experimental: as §1, §2, §3, §4

[3] = system: HCC-2998; test: NCI screening panel, HCC-2998 (Colon Cancer)
Experimental: as §1, §2, §3, §4

[4] = system: MALME-3M; test: NCI screening panel, MALME-3M (Melanoma)
Experimental: as §1, §2, §3, §4

[5] = system: TK-10; test: NCI screening panel, TK-10 (Renal Cancer)
Experimental: as §1, §2, §3, §4

[6] = system: HOP-62; test: NCI screening panel, HOP-62 (Non-Small Cell Lung Cancer)
Experimental: as §1, §2, §3, §4

[7] = system: SK-MEL-28; test: NCI screening panel, SK-MEL-28 (Melanoma)
Experimental: as §1, §2, §3, §4

[8] = system: HCT-116; test: NCI screening panel, HCT-116 (Colon Cancer)
Experimental: as §1, §2, §3, §4

[9] = system: SF-295; test: NCI screening panel, SF-295 (CNS Cancer)
Experimental: as §1, §2, §3, §4

[10] = system: OVCAR-5; test: NCI screening panel, OVCAR-5 (Ovarian Cancer)
Experimental: as §1, §2, §3, §4

[11] = system: SW-620; test: NCI screening panel, SW-620 (Colon Cancer)
Experimental: as §1, §2, §3, §4

[12] = system: UACC-257; test: NCI screening panel, UACC-257 (Melanoma)
Experimental: as §1, §2, §3, §4

[13] = system: OVCAR-8; test: NCI screening panel, OVCAR-8 (Ovarian Cancer)
Experimental: as §1, §2, §3, §4

[14] = system: NCI-H226; test: NCI screening panel, NCI-H226 (Non-Small Cell Lung Cancer)
Experimental: as §1, §2, §3, §4

[15] = system: PC-3; test: NCI screening panel, PC-3 (Prostate Cancer)
Experimental: as §1, §2, §3, §4

[16] = system: NCI-H23; test: NCI screening panel, NCI-H23 (Non-Small Cell Lung Cancer)
Experimental: as §1, §2, §3, §4

[17] = system: NCI-H322M; test: NCI screening panel, NCI-H322M (Non-Small Cell Lung Cancer)
Experimental: as §1, §2, §3, §4

[18] = system: MOLT-4; test: NCI screening panel, MOLT-4 (Leukemia)
Experimental: as §1, §2, §3, §4

[19] = system: SF-268; test: NCI screening panel, SF-268 (CNS Cancer)
Experimental: as §1, §2, §3, §4

Compound: CC(C)C[C@H](NC(=O)[C@H](COC(F)F)NC(=O)CN1CCOCC1)C(=O)N[C@@H](COC(F)F)C(=O)N[C@@H](Cc1ccccc1)C(=O)[C@@]1(C)CO1 [Example 4, (2S)-N-[(1S)-2-[[(1S)-1-benzyl-2-[(2R)-2-methyloxiran-2-yl]-2-oxo-ethyl]amino]-1-(difluoromethoxymethyl)-2-oxo-ethyl]-2-[[(2S)-3-(difluoromethoxy)-2-[(2-mor-pholinoacetyl)amino]propanoyl]amino]-4 methyl-pentanamide]
- Log10GI50 [1]: −7.68
- Log10TGI50 [1]: −7.08
- Log10GI50 [2]: −6.20
- Log10LC50 [2]: >−4.00
- Log10TGI50 [2]: −5.22
- Log10GI50 [3]: −7.29
- Log10LC50 [3]: −6.30
- Log10TGI50 [3]: −6.75
- Log10GI50 [4]: −7.49
- Log10LC50 [4]: >−4.00
- Log10TGI50 [4]: −6.38
- Log10GI50 [5]: −6.57
- Log10LC50 [5]: >−4.00
- Log10TGI50 [5]: −5.48
- Log10GI50 [6]: −7.65
- Log10LC50 [6]: >−4.00
- Log10TGI50 [6]: −6.98
- Log10GI50 [7]: −7.35
- Log10LC50 [7]: −4.79
- Log10TGI50 [7]: −6.62
- Log10GI50 [8]: −7.70
- Log10LC50 [8]: −4.57
- Log10TGI50 [8]: −6.98
- Log10GI50 [9]: −7.48
- Log10LC50 [9]: −5.22
- Log10TGI50 [9]: −6.60
- Log10GI50 [10]: −7.29
- Log10LC50 [10]: >−4.00
- Log10TGI50 [10]: −6.07
- Log10GI50 [11]: −7.43
- Log10LC50 [11]: −4.40
- Log10TGI50 [11]: −5.98
- Log10GI50 [12]: −6.71
- Log10LC50 [12]: −4.14
- Log10TGI50 [12]: −6.11
- Log10GI50 [13]: −6.67
- Log10LC50 [13]: >−4.00
- Log10TGI50 [13]: −5.89
- Log10GI50 [14]: −7.66
- Log10LC50 [14]: −6.57
- Log10TGI50 [14]: −7.30
- Log10GI50 [15]: −7.18
- Log10LC50 [15]: −4.68
- Log10TGI50 [15]: −6.40
- Log10GI50 [16]: −7.51
- Log10LC50 [16]: −4.31
- Log10TGI50 [16]: −6.63
- Log10GI50 [17]: −6.73
- Log10LC50 [17]: −4.18
- Log10TGI50 [17]: −5.81
- Log10GI50 [18]: −7.82
- Log10LC50 [18]: >−4.00
- Log10TGI50 [18]: −7.07
- Log10GI50 [19]: −7.58
- Log10LC50 [19]: >−4.00
- Log10TGI50 [19]: −6.82
